Experimental data taken from the supplement of paper PMC5908809.

Assays:
[1] = tested on: normal NK cells expanded with K562-aAPC; assay: percent inhibition of viability; higher = more inhibition; settings: 72 h, IL-2 2.5 ng/mL
Procedure: (§1)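 Drug sensitivity and resistance testing on K562-aAPC-expanded normal NK cells: 5 concentrations (10-fold steps over a 10,000-fold range), 72 h at 37 °C, viability by CellTiter-Glo normalised to DMSO and benzethonium chloride controls; DSS from the fitted curve.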

DERL-7 (IL-2 2.5 ng/mL) [2] = assay: as above; settings: 72 h
IMC-1 (IL-2 20 ng/mL) [3] = assay: as above; settings: 72 h
KAI3 (IL-2 2.5 ng/mL) [4] = assay: as above; settings: 72 h
KHYG-1 (IL-2 2.5 ng/mL) [5] = assay: as above; settings: 72 h
NK-92 (IL-2 2.5 ng/mL) [6] = assay: as above; settings: 72 h
NK-YS (IL-2 2.5 ng/mL) [7] = assay: as above; settings: 72 h
NKL (IL-2 2.5 ng/mL) [8] = assay: as above; settings: 72 h
SNK-6 (IL-2 2.5 ng/mL) [9] = assay: as above; settings: 72 h
YT (IL-2 2.5 ng/mL) [10] = assay: as above; settings: 72 h
[11] = tested on: normal primary NK cells, pool 1 (3 donors) (IL-2 2.5 ng/mL); assay: as above; settings: 72 h
[12] = tested on: normal primary NK cells, pool 1 (3 donors), resting (IL-2 0 ng/mL); assay: as above; settings: 72 h
[13] = tested on: normal primary NK cells, pool 2 (3 donors) (IL-2 2.5 ng/mL); assay: as above; settings: 72 h
[14] = tested on: normal primary NK cells, pool 3 (3 donors) (IL-2 2.5 ng/mL); assay: as above; settings: 72 h
[15] = tested on: normal NK cells expanded with K562-aAPC; assay: drug sensitivity score (DSS) (DSS units); higher = more sensitive; extreme values may be limits of the assay; settings: 72 h; IL-2 2.5 ng/mL
Procedure: as §1

DERL-7 (IL-2 2.5 ng/mL) [16] = assay: as above; settings: 72 h
IMC-1 (IL-2 20 ng/mL) [17] = assay: as above; settings: 72 h
KAI3 (IL-2 2.5 ng/mL) [18] = assay: as above; settings: 72 h
KHYG-1 (IL-2 2.5 ng/mL) [19] = assay: as above; settings: 72 h
NK-92 (IL-2 2.5 ng/mL) [20] = assay: as above; settings: 72 h
NK-YS (IL-2 2.5 ng/mL) [21] = assay: as above; settings: 72 h
NKL (IL-2 2.5 ng/mL) [22] = assay: as above; settings: 72 h
SNK-6 (IL-2 2.5 ng/mL) [23] = assay: as above; settings: 72 h
YT (IL-2 2.5 ng/mL) [24] = assay: as above; settings: 72 h
[25] = tested on: normal primary NK cells, pool 1 (3 donors) (IL-2 2.5 ng/mL); assay: as above; settings: 72 h
[26] = tested on: normal primary NK cells, pool 1 (3 donors), resting (IL-2 0 ng/mL); assay: as above; settings: 72 h
[27] = tested on: normal primary NK cells, pool 2 (3 donors) (IL-2 2.5 ng/mL); assay: as above; settings: 72 h
[28] = tested on: normal primary NK cells, pool 3 (3 donors) (IL-2 2.5 ng/mL); assay: as above; settings: 72 h

CN(C)/N=N/c1[nH]cnc1C(N)=O [Dacarbazine] (max concentration tested 10000 nM)
percent inhibition of viability [%]
Settings	1 nM	10 nM	100 nM	1000 nM	10000 nM
DERL-7 (IL-2 2.5 ng/mL) [2]	-2.46	-7.71	-9.81	-6.85	-5.73
IMC-1 (IL-2 20 ng/mL) [3]	-2.15	-3.53	1.36	1.13	5.24
KAI3 (IL-2 2.5 ng/mL) [4]	-5.96	-7.58	-5.99	-9.63	10.8
KHYG-1 (IL-2 2.5 ng/mL) [5]	-1.18	-4.93	-1.85	0.07	39.6
NK-92 (IL-2 2.5 ng/mL) [6]	-11.1	-14.5	-3.48	-12.7	-1.95
NK-YS (IL-2 2.5 ng/mL) [7]	-2.92	-5.5	2.66	4.39	31.8
NKL (IL-2 2.5 ng/mL) [8]	-15.6	-10.8	-1.7	0.09	-2.93
SNK-6 (IL-2 2.5 ng/mL) [9]	16.4	16	31.9	30.4	22.6
YT (IL-2 2.5 ng/mL) [10]	-0.72	-1.38	3.7	1.57	59.6
[1]	-6.74	-2.31	-4.77	1.92	10.3
[11]	1.02	-5.15	0.2	-11.5	-4.15
[12]	-7.07	-16.7	-8.98	-35.2	-22.9
[13]	-10.3	-8.69	-2.46	-11.8	-2.6
[14]	-14.1	-10.7	-2.39	-8.2	3.49

Settings	drug sensitivity score
DERL-7 (IL-2 2.5 ng/mL) [16]	0
IMC-1 (IL-2 20 ng/mL) [17]	0
KAI3 (IL-2 2.5 ng/mL) [18]	0
KHYG-1 (IL-2 2.5 ng/mL) [19]	1.97
NK-92 (IL-2 2.5 ng/mL) [20]	0
NK-YS (IL-2 2.5 ng/mL) [21]	2.15
NKL (IL-2 2.5 ng/mL) [22]	0
SNK-6 (IL-2 2.5 ng/mL) [23]	10.7
YT (IL-2 2.5 ng/mL) [24]	3.43
[15]	0
[25]	0
[26]	0
[27]	0
[28]	0

COc1cc2ncnc(Nc3ccc(F)c(Cl)c3)c2cc1NC(=O)/C=C/CN1CCCCC1 [Dacomitinib] (max concentration tested 1000 nM)
percent inhibition of viability [%]
Settings	0.1 nM	1 nM	10 nM	100 nM	1000 nM
DERL-7 (IL-2 2.5 ng/mL) [2]	-5.58	-2.85	-0.73	-3.8	35.9
IMC-1 (IL-2 20 ng/mL) [3]	9.55	7.6	11.6	10.1	13.4
KAI3 (IL-2 2.5 ng/mL) [4]	7.94	10.2	11.4	7.46	31.4
KHYG-1 (IL-2 2.5 ng/mL) [5]	10.5	10.2	7.74	5.43	16.9
NK-92 (IL-2 2.5 ng/mL) [6]	14.8	4.75	15.7	-7.18	27.1
NK-YS (IL-2 2.5 ng/mL) [7]	7.35	1.97	10.7	6.81	23.5
NKL (IL-2 2.5 ng/mL) [8]	3.41	22.9	21.4	24.5	43.9
SNK-6 (IL-2 2.5 ng/mL) [9]	6.36	-3.37	6.76	1.63	22.4
YT (IL-2 2.5 ng/mL) [10]	5.15	4.77	7.83	2.51	14.2
[1]	4.92	5.66	5.66	10.2	29.5
[11]	2.94	-9.71	-7.32	-13.9	28.8
[12]	4.51	-7.96	0.41	-14.9	59.7
[13]	-2.98	-1.98	1.99	-4.15	33
[14]	0.64	1.31	-1.6	-10.6	17.6

Settings	drug sensitivity score
DERL-7 (IL-2 2.5 ng/mL) [16]	1.45
IMC-1 (IL-2 20 ng/mL) [17]	0.74
KAI3 (IL-2 2.5 ng/mL) [18]	2.88
KHYG-1 (IL-2 2.5 ng/mL) [19]	0
NK-92 (IL-2 2.5 ng/mL) [20]	0.79
NK-YS (IL-2 2.5 ng/mL) [21]	1.38
NKL (IL-2 2.5 ng/mL) [22]	8.95
SNK-6 (IL-2 2.5 ng/mL) [23]	0.98
YT (IL-2 2.5 ng/mL) [24]	0
[15]	2.02
[25]	0.77
[26]	2.49
[27]	1.25
[28]	0.2

Cc1nc(Nc2ncc(C(=O)Nc3c(C)cccc3Cl)s2)cc(N2CCN(CCO)CC2)n1 [Dasatinib] (max concentration tested 1000 nM)
percent inhibition of viability [%]
Settings	0.1 nM	1 nM	10 nM	100 nM	1000 nM
DERL-7 (IL-2 2.5 ng/mL) [2]	2.24	8.32	14.1	5.36	23.2
IMC-1 (IL-2 20 ng/mL) [3]	-4.24	-3.41	-7.41	-6.36	8.01
KAI3 (IL-2 2.5 ng/mL) [4]	-0.36	1.21	4.62	14.5	34
KHYG-1 (IL-2 2.5 ng/mL) [5]	-4.78	-5.41	2.42	4.68	15
NK-92 (IL-2 2.5 ng/mL) [6]	-15.2	-20	-16.4	-1	22.6
NK-YS (IL-2 2.5 ng/mL) [7]	-0.77	-3.69	1.85	9.09	26.2
NKL (IL-2 2.5 ng/mL) [8]	-6.62	-1.79	12	30.8	50.2
SNK-6 (IL-2 2.5 ng/mL) [9]	26.1	-6.71	-10.2	3.42	33.2
YT (IL-2 2.5 ng/mL) [10]	-6.9	-3.71	0.56	23	39.6
[1]	-0.95	4.04	19.2	3.69	18.7
[11]	-0.11	19.3	13.1	15.4	19.5
[12]	-8.65	23.5	15.4	12.1	3.61
[13]	-3.84	18.3	1.6	0.44	6.62
[14]	0.39	14.8	-5.88	-19.1	-19.4

Settings	drug sensitivity score
DERL-7 (IL-2 2.5 ng/mL) [16]	1.68
IMC-1 (IL-2 20 ng/mL) [17]	0
KAI3 (IL-2 2.5 ng/mL) [18]	2.92
KHYG-1 (IL-2 2.5 ng/mL) [19]	0.45
NK-92 (IL-2 2.5 ng/mL) [20]	0.7
NK-YS (IL-2 2.5 ng/mL) [21]	2.02
NKL (IL-2 2.5 ng/mL) [22]	6.85
SNK-6 (IL-2 2.5 ng/mL) [23]	2.07
YT (IL-2 2.5 ng/mL) [24]	4.71
[15]	1.3
[25]	6.61
[26]	0
[27]	0
[28]	0
